The text below walks through data of patent US9487489B2, “Halogen-substituted pyrazole derivatives as pest-control agents” (BAYER CROPSCIENCE AKTIENGESELLSCHAFT, priority 2013, dated 2016).

Experiment [1] deals with Tick nymphs (Amblyomma hebraeum). In words: Amblyomma hebraeum test (AMBYHE), tick nymphs immersed. In kind it is in vivo. To be noted: application rate 100 ppm; immersed one minute; after 42 days. As to the method: A. Amblyomma hebaraeum Test (AMBYHE)
Solvent: dimethyl sulphoxide
To produce a suitable preparation of active compound, 10 mg of active compound are mixed with 0.5 ml of dimethyl sulfoxide, and the concentrate is diluted with water to the desired concentration.
Tick nymphs (Amblyomma hebraeum) are placed into perforated plastic beakers and immersed in the desired concentration for one minute. The ticks are transferred on filter paper into a Petri dish and stored in a climate-controlled cabinet.
After 42 days, the kill in % is determined. 100% means that all of the ticks have been killed; 0% means that none of the ticks have been killed.

Experiment [2] has as its system engorged adult female cattle ticks (Boophilus microplus). In words: Boophilus microplus injection test (BOOPMI Inj). In kind it is in vivo. As to conditions: application rate 20 μg/animal; injection into abdomen; assessed after 7 days. In outline:
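DMSO solution of compound (1 μl) injected into the abdomen of 5 engorged adult female ticks, which are then held in a climate-controlled room. After 7 days, efficacy is scored from laying of fertile eggs, with unclear eggs kept until larval hatch (~42 days); 100% means no fertile eggs, 0% all fertile.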

The test system of experiment [3] is L1 larvae of the Australian sheep blowfly (Lucilia cuprina). Briefly: Lucilia cuprina test (LUCICU). In kind it is in vivo. As to conditions: application rate 100 ppm; after 2 days. In outline: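 About 20 L1 larvae placed in a vessel with minced horsemeat plus compound (DMSO concentrate diluted with water to the desired concentration). Kill in % scored after 2 days, 100% meaning all larvae dead.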

Experiment [4] has as its system adult houseflies (Musca domestica). Briefly: Musca domestica test (MUSCDO). It is filed as in vivo. As to conditions: application rate 100 ppm; after 2 days. An outline of the steps: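 Compound dissolved in DMSO and diluted with water to the test concentration, applied with sugar solution on a sponge; 10 adult houseflies per vessel. Mortality scored after 2 days as % kill (100% all dead, 0% none).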

For experiment [5], the system named is caterpillars of the armyworm (Spodoptera frugiperda). In words: Spodoptera frugiperda spray test (SPODFR). In kind it is in vivo. To be noted: maize leaf discs, after 7 days. In outline: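 Maize leaf discs sprayed with compound in acetone/DMF with alkylaryl polyglycol ether emulsifier (1000 ppm) in water, dried, then infested with armyworm caterpillars. Mortality (%) scored after 7 days; 100% = all caterpillars killed, 0% = none killed.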

Experiment [6] concerns greenhouse red spider mite (Tetranychus urticae). Briefly: Tetranychus urticae spray test, OP-resistant (TETRUR). In kind it is in vivo. As to conditions: bean leaf discs, after 6 days. In outline:
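Bean leaf discs carrying all stages of OP-resistant Tetranychus urticae were sprayed with compound formulated in acetone/dimethylformamide and diluted in water with 1000 ppm alkylaryl polyglycol ether emulsifier. Mortality (% efficacy, 100% = all mites killed) scored after 6 days.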

Experiment [7] deals with adult cat fleas (Ctenocephalides felis). Briefly: Ctenocephalides felis in vitro contact test with adult cat fleas (T1). To be noted: after 48 h. An outline of the steps: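 Test compound was dissolved in acetone p.a. (9 mg per 1 ml) and diluted as needed. 250 μl was spread evenly over the inner walls and floor of a 25 ml test tube by rotating on an orbital shaker for 2 h at 30 rpm. Once the solvent evaporated, 5-10 adult Ctenocephalides felis were added. Tubes were capped with a perforated plastic lid and kept horizontal at room temperature and ambient humidity.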

The subject of experiment [8] is adult dog ticks (Rhipicephalus sanguineus). Briefly: Rhipicephalus sanguineus in vitro contact test with adult brown dog ticks (T2). As to conditions: after 48 h. An outline of the steps:
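Acetone solutions coated onto test tube walls and floor, giving 5 μg/cm^2 at 900 ppm. Five to ten adult ticks held per tube in the dark at room temperature for 48 h, then heated at 45-50° C for up to 5 min; efficacy is the percentage of dead or moribund ticks unable to climb away.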

Experiment [9] deals with adult castor bean ticks (Ixodes ricinus). In words: Ixodes ricinus in vitro contact test with adult castor bean ticks (T3). To be noted: after 48 h. In outline: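 Test compound was dissolved in acetone p.a. (9 mg in 1 ml) and diluted with acetone; 250 μl were spread evenly over the inner walls and floor of 25 ml test tubes by rocking on an orbital shaker (2 h, 30 rpm). Once the solvent evaporated, 5-10 adult Ixodes ricinus ticks were added, tubes closed with perforated lids and kept horizontally in darkness at 22° C. and 90% humidity. After 48 h, ticks were placed on a 45-50° C. hotplate for up to 5 min; those motionless or unable to climb away were scored dead or moribund.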

For experiment [10], the system named is bont tick nymphs (Amblyomma hebraeum). To be noted: after 48 h.

The structures appear in SMILES notation. Values joined by “and” are separate entries in the source; they are usually repeats but may differ in a detail not shown here. Equal values may be shown once.

For `Cn1nc(C(F)(F)C(F)(F)F)c(C(F)(F)F)c1-n1cc(-c2ccc(Cl)c(C(=O)NC3CC3)c2)cn1` [Ic-1, 2-Chloro-N-cyclopropyl-5-[2′-methyl-5′-(pentafluoroethyl)-4′-(trifluoromethyl)-2′H-1,3′-bipyrazol-4-yl]benzamide], the “efficacy (kill in %)” value in experiment [1], in [3] and in experiment [4] was 100% each time. In addition, in experiment [2], the “efficacy (laying of fertile eggs)” value was 100%. Besides, the efficacy in % in experiment [5] (application rate 500 g/ha) and in experiment [6] (application rate 500 g/ha) was 100% in each case. Moreover, the “efficacy (dead or moribund fleas)” value in [7] (application rate 1 μg/cm^2) and in [7] (application rate 5 μg/cm^2) was 100% each time. Besides, the “efficacy (dead or moribund ticks)” value in experiment [8] (application rate 1 μg/cm^2), in experiment [8] (application rate 5 μg/cm^2), in [9] (application rate 1 μg/cm^2), in experiment [9] (application rate 5 μg/cm^2) and in [10] was 100% each time.
As to `Cn1nc(C(F)(F)C(F)(F)F)c(C(F)(F)F)c1-n1cc(-c2ccc(F)c(C(=O)NC3CC3)c2)cn1` [Ic-37], the “efficacy (kill in %)” value in experiment [1], in experiment [3] and in experiment [4] was 100% throughout. Also, in experiment [2], the “efficacy (laying of fertile eggs)” value is 100%. Besides, the efficacy in % in experiment [5] (application rate 100 g/ha) and in [6] (application rate 100 g/ha) was 100% in each case. In addition, the “efficacy (dead or moribund fleas)” value in experiment [7] (application rate 1 μg/cm^2) and in experiment [7] (application rate 5 μg/cm^2) was 100% in each case. Further, the “efficacy (dead or moribund ticks)” value in experiment [8] (application rate 1 μg/cm^2), in experiment [8] (application rate 5 μg/cm^2), in experiment [9] (application rate 1 μg/cm^2), in experiment [9] (application rate 5 μg/cm^2) and in experiment [10] was 100% throughout.
`Cn1nc(C(F)(F)C(F)(F)F)c(C(F)(F)F)c1-n1cc(-c2ccc(Cl)c(C(=O)NCC(F)(F)F)c2)cn1` [Ic-23]: the “efficacy (kill in %)” value in [1], in [3] and in experiment [4] was 100% in each case. Also, in experiment [2], the “efficacy (laying of fertile eggs)” value was determined as 100%. In addition, the efficacy in % in experiment [5] (application rate 100 g/ha) and in [6] (application rate 100 g/ha) was 100% each time. Moreover, the “efficacy (dead or moribund fleas)” value in [7] (application rate 1 μg/cm^2) and in experiment [7] (application rate 5 μg/cm^2) was 100% each time. Also, the “efficacy (dead or moribund ticks)” value in experiment [8] (application rate 1 μg/cm^2), in [8] (application rate 5 μg/cm^2), in experiment [9] (application rate 1 μg/cm^2), in experiment [9] (application rate 5 μg/cm^2) and in experiment [10] was 100% each time.
For `Cn1nc(C(F)(F)C(F)(F)F)c(C(F)(F)F)c1-n1cnc(-c2ccc(Cl)c(C(=O)NC3CC3)c2)c1` [Ib-3], the “efficacy (kill in %)” value in [1], in [3] and in experiment [4] was 100% throughout. In addition, the “efficacy (laying of fertile eggs)” value in experiment [2] stood at 100%. In addition, the efficacy in % in experiment [5] (application rate 100 g/ha) and in experiment [6] (application rate 100 g/ha) was 100% throughout. Moreover, the “efficacy (dead or moribund fleas)” value in [7] (application rate 1 μg/cm^2) and in [7] (application rate 5 μg/cm^2) was 100% in each case. Further, the “efficacy (dead or moribund ticks)” value in experiment [8] (application rate 1 μg/cm^2) is 100%; in experiment [8] (application rate 5 μg/cm^2), 80%; in [9] (application rate 1 μg/cm^2), 80%; in experiment [9] (application rate 5 μg/cm^2), 80%; in experiment [10], 100% and 80%.
For the compound `Cn1nc(C(F)(F)C(F)(F)F)c(C(F)(F)F)c1-n1cc(-c2ccc(Cl)c(C(=O)NC3(C#N)CC3)c2)cn1` [Ic-2], the “efficacy (kill in %)” value in [1], in [3] and in experiment [4] was 100% each time. Moreover, the “efficacy (laying of fertile eggs)” value in [2] came to 100%. For the same compound, the efficacy in % in experiment [5] (application rate 100 g/ha) and in [6] (application rate 100 g/ha) was 100% throughout. For the same compound, the “efficacy (dead or moribund fleas)” value in experiment [7] (application rate 1 μg/cm^2) and in experiment [7] (application rate 5 μg/cm^2) was 100% throughout. Moreover, the “efficacy (dead or moribund ticks)” value in experiment [8] (application rate 1 μg/cm^2), in [8] (application rate 5 μg/cm^2), in experiment [9] (application rate 1 μg/cm^2), in experiment [9] (application rate 5 μg/cm^2) and in experiment [10] was 100% throughout.
Turning to `Cc1ncc(-c2cnn(-c3c(C(F)(F)F)c(C(F)(F)C(F)(F)F)nn3C)c2)cc1C(=O)NC1CC1` [Ic-84], the “efficacy (kill in %)” value in experiment [1], in experiment [3] and in [4] was 100% each time. In [2], the “efficacy (laying of fertile eggs)” value turned out to be 100%. For the same compound, the efficacy in % in [5] (application rate 500 g/ha) and in experiment [6] (application rate 500 g/ha) was 100% throughout. The “efficacy (dead or moribund fleas)” value in experiment [7] (application rate 1 μg/cm^2) and in experiment [7] (application rate 5 μg/cm^2) was 100% in each case. The “efficacy (dead or moribund ticks)” value in experiment [8] (application rate 1 μg/cm^2), in experiment [8] (application rate 5 μg/cm^2), in experiment [9] (application rate 1 μg/cm^2), in experiment [9] (application rate 5 μg/cm^2) and in [10] was 100% throughout.
Take `Cn1nc(C(F)(F)C(F)(F)F)c(C(F)(F)F)c1-n1cc(-c2ccc(Cl)c(C(=O)NC3(C(N)=S)CC3)c2)cn1` [Ic-11]: the “efficacy (kill in %)” value in experiment [1], in experiment [3] and in experiment [4] was 100% each time. For the same compound, in experiment [2], the “efficacy (laying of fertile eggs)” value was 100%. Moreover, the values for the efficacy in % in experiment [5] (application rate 100 g/ha) and in experiment [6] (application rate 100 g/ha) were 100% and 90%, respectively. Moreover, the “efficacy (dead or moribund fleas)” value in experiment [7] (application rate 1 μg/cm^2) and in [7] (application rate 5 μg/cm^2) was 100% in each case. The “efficacy (dead or moribund ticks)” value in experiment [8] (application rate 1 μg/cm^2) is listed as 100%; in experiment [8] (application rate 5 μg/cm^2), 100%; in experiment [9] (application rate 1 μg/cm^2), 80%; in experiment [9] (application rate 5 μg/cm^2) it was 100%; in experiment [10], 100%.
On to `Cn1nc(C(F)(F)C(F)(F)F)c(C(F)(F)F)c1-n1cc(-c2cc(Cl)c(Cl)c(C(=O)NC3CC3)c2)cn1` [Ic-94], for which the “efficacy (kill in %)” value in experiment [1], in [3] and in experiment [4] was 100% in each case. Further, the “efficacy (laying of fertile eggs)” value in experiment [2] came out at 100%. Further, the efficacy in % in experiment [5] (application rate 500 g/ha) and in [6] (application rate 500 g/ha) was 100% in each case. Besides, the “efficacy (dead or moribund fleas)” value in experiment [7] (application rate 1 μg/cm^2) and in experiment [7] (application rate 5 μg/cm^2) was 100% each time. Further, the “efficacy (dead or moribund ticks)” value in [8] (application rate 1 μg/cm^2), in [8] (application rate 5 μg/cm^2), in [9] (application rate 1 μg/cm^2), in experiment [9] (application rate 5 μg/cm^2) and in experiment [10] was 100% each time.
As for `Cn1nc(C(F)(F)C(F)(F)F)c(C(F)(F)F)c1-n1ccc(-c2ccc(Cl)c(C(=O)NC3CC3)c2)c1` [Ia-2], the “efficacy (kill in %)” value in experiment [1] is listed as 100%; in experiment [3], 100%; in experiment [4], 90%. The “efficacy (laying of fertile eggs)” value in [2] was determined as 100%. Moreover, the figures for the efficacy in % in experiment [5] (application rate 100 g/ha) and in [6] (application rate 100 g/ha) were 100% and 90%, respectively. Besides, the “efficacy (dead or moribund fleas)” value in experiment [7] (application rate 1 μg/cm^2) and in experiment [7] (application rate 5 μg/cm^2) was 100% throughout. In addition, the “efficacy (dead or moribund ticks)” value in experiment [8] (application rate 1 μg/cm^2), in experiment [8] (application rate 5 μg/cm^2), in experiment [9] (application rate 1 μg/cm^2), in experiment [9] (application rate 5 μg/cm^2) and in experiment [10] was 100% each time.
